The text below walks through data of ChEMBL document CHEMBL1139391, “Synthesis and structure-activity relationship of benzetimide derivatives as human CXCR3 antagonists” (Bioorg Med Chem Lett, 2008).

Assay [1] deals with T1, C-X-C chemokine receptor type 3 (Homo sapiens, UniProt P49682).
T1 sequence (P49682 whole entry): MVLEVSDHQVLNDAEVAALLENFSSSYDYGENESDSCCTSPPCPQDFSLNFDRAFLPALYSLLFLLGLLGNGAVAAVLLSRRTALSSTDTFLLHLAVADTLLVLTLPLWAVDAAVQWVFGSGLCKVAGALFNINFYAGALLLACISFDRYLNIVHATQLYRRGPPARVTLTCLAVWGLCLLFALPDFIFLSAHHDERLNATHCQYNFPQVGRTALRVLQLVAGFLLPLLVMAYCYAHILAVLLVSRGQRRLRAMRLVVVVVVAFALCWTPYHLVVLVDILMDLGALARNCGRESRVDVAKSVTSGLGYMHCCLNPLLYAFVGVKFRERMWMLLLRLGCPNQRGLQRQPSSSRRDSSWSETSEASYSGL
As to the kind of experiment: Antagonist activity at human CXCR3 expressed in CHO cells assessed as inhibition of ITAC-stimulated [35S]GTPgammaS binding pretreated 30 mins before ITAC challenge. The assay is classed as functional, cell-based. (GTPγS resists hydrolysis and so accumulates on activated G proteins.)

Assay [2] addresses Muscarinic acetylcholine receptor M3 (Homo sapiens, UniProt P20309). As to the kind of experiment: Binding affinity to human muscarinic M3 receptor.
Assay [3] addresses T2, Muscarinic acetylcholine receptor M1 (Homo sapiens, UniProt P11229).
T2 sequence (P11229 whole entry): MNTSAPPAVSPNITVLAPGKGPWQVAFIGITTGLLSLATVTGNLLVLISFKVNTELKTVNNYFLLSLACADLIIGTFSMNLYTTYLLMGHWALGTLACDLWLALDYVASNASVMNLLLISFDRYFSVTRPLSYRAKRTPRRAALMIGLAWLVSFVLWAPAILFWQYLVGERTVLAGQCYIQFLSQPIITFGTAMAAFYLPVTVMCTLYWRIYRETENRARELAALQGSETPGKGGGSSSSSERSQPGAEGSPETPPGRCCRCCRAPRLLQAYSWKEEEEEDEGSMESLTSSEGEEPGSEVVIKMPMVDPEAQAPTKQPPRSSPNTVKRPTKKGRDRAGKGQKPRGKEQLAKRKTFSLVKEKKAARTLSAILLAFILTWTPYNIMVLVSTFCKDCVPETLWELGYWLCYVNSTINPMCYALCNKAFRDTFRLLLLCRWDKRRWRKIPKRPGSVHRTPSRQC
As to the kind of experiment: Binding affinity to human muscarinic M1 receptor.

The target in assay [4] is T3, Muscarinic acetylcholine receptor M2 (Homo sapiens, UniProt P08172).
T3 sequence (P08172 whole entry): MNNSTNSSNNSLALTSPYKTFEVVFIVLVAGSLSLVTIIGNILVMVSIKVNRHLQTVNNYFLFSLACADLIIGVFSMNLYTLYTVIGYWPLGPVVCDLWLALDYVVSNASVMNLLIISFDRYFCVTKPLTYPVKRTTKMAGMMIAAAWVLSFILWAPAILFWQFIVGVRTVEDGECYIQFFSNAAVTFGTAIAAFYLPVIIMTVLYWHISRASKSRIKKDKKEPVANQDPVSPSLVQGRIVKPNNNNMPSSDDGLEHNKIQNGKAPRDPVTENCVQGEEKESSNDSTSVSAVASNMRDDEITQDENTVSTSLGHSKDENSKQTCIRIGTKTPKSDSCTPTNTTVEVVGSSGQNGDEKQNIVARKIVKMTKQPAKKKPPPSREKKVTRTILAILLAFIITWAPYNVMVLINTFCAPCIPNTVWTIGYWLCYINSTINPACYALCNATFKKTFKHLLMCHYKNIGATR
As to the kind of experiment: Binding affinity to human muscarinic M2 receptor.

Chain of Muscarinic acetylcholine receptor M3 (P20309 whole entry): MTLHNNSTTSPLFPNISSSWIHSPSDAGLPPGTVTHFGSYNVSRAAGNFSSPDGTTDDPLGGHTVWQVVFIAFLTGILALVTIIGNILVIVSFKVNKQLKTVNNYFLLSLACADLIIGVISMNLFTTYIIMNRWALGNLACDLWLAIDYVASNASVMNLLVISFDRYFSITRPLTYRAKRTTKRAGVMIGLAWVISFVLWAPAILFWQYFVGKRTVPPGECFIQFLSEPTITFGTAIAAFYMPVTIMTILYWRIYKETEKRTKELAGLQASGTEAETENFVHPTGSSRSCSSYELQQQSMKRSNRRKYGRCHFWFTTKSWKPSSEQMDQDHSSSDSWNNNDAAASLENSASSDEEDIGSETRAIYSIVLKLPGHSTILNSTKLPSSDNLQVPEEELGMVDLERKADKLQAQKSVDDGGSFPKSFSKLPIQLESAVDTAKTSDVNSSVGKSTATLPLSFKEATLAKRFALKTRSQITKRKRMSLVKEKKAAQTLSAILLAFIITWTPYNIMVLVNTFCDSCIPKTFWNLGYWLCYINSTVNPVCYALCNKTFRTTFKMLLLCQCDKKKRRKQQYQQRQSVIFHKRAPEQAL

As a reminder, the IC50 is the concentration at which inhibition is half-maximal. With `O=C1CCC(c2ccccc2)(C2CCN(Cc3ccc(Cl)cc3Cl)CC2)C(=O)N1` (racemic), in assay [1], the IC50 was determined as 3160 nM.

`O=C(Nc1ccccc1)N1CCCC(c2ccccc2)(C2CCN(Cc3ccc(Br)cc3)CC2)C1` (racemic): in assay [1], the IC50 amounted to 60 nM. In the case of `O=C1CCC(c2ccc(F)cc2F)(C2CCN(Cc3ccc(Br)cc3)CC2)C(=O)N1` (single isomer, unassigned; (+)), the half-maximal inhibitory concentration (IC50) in assay [2] is below 1 nM; in assay [3], below 1 nM; in assay [4] it was below 1 nM; in assay [1] it was 330 nM. Consider `O=C1CCC(c2ccc(F)cc2F)(C2CCN(Cc3ccc(Br)cc3)CC2)C(=O)N1` (racemic), for which, in assay [1], the IC50 stood at 120 nM.

For `COc1ccc(S(=O)(=O)O)cc1C1(C2CCN(Cc3ccc(Br)cc3)CC2)CCC(=O)NC1=O` (racemic), the IC50 in assay [1] was found to be 170 nM. `COc1ccc(CN2CCC(C3(c4ccccc4)CCC(=O)NC3=O)CC2)cc1` (racemic): the IC50 in assay [1] is 4270 nM. With `O=C1CCC(c2ccccc2)(C2CCN(Cc3ccc(Br)cc3)CC2)C(=O)N1` (single isomer, unassigned; (+)), the IC50 in assay [2] was below 1 nM; in assay [3] it was below 1 nM; in assay [4], below 1 nM; in assay [1], 1330 nM. In the case of `Brc1ccc(CN2CCC(C3(c4ccccc4)CCCNC3)CC2)cc1` (racemic), the IC50 in assay [1] was above 10000 nM. As for `O=C1CCC(c2cccc(Cl)c2)(C2CCN(Cc3ccc(Br)cc3)CC2)C(=O)N1` (racemic), in assay [1], the IC50 came out at 1450 nM. `O=CN1CCCC(c2ccccc2)(C2CCN(Cc3ccc(Br)cc3)CC2)C1` (racemic): in assay [1], the IC50 stood at 150 nM. Consider `O=C1CCC(c2ccc(F)cc2F)(C2CCN(Cc3ccc(Br)cc3)CC2)C(=O)N1` (single isomer, unassigned; (-)), for which the IC50 in assay [2] was above 10000 nM; in assay [3], above 10000 nM; in assay [4] it was above 10000 nM; in assay [1] it was 60 nM.

As for `NC(=O)CN1CCCC(c2ccccc2)(C2CCN(Cc3ccc(Br)cc3)CC2)C1` (stereo in doubt; (+)-47b), the IC50 in assay [2] is above 10000 nM; in assay [3], above 10000 nM; in assay [4], above 10000 nM; in assay [1], 60 nM. With `CC(=O)N1CCCC(c2ccccc2)(C2CCN(Cc3ccc(Br)cc3)CC2)C1` (single isomer, unassigned; (-)), the IC50 in assay [2] was 3000 nM; in assay [3], 10000 nM; in assay [4] it was 10000 nM; in assay [1], 110 nM.

For the compound `NC(=O)CN1CCCC(c2ccccc2)(C2CCN(Cc3ccc(Br)cc3)CC2)C1` (single isomer, unassigned; (-)), the IC50 came to 1100 nM in assay [2], 5000 nM in assay [3], 2000 nM in assay [4] and 810 nM in assay [1].

As to `CN1CCN(C(=O)c2cccc(C3(C4CCN(Cc5ccc(Br)cc5)CC4)CCC(=O)NC3=O)c2)CC1` (racemic), the IC50 in assay [1] was 1260 nM. Take `O=C1CCC(c2ccccc2)(C2CCN(Cc3ccccc3)CC2)C(=O)N1` (single isomer, unassigned; (+)) [BENZETIMIDE]: the IC50 in assay [2] was below 1 nM; in assay [3], below 1 nM; in assay [4], below 1 nM; in assay [1] (cho) it was above 10000 nM. `O=C1CCC(c2ccccc2)(C2CCN(Cc3ccc(Cl)c(C(F)(F)F)c3)CC2)C(=O)N1` (racemic): the half-maximal inhibitory concentration (IC50) in assay [1] was determined as 2510 nM.

Turning to `CC(=O)N1CCCC(c2ccccc2)(C2CCN(Cc3ccc(Br)cc3)CC2)C1` (racemic), the IC50 in assay [1] is 140 nM. Regarding `O=C1CCC(c2ccc(F)cc2)(C2CCN(Cc3ccc(Br)cc3)CC2)C(=O)N1` (racemic), the IC50 in assay [1] came to 1260 nM. On to `Nc1cccc(C2(C3CCN(Cc4ccc(Br)cc4)CC3)CCC(=O)NC2=O)c1` (racemic), for which, in assay [1], the IC50 was 320 nM.

Turning to `CCC(=O)N1CCCC(c2ccccc2)(C2CCN(Cc3ccc(Br)cc3)CC2)C1` (racemic), in assay [1], the IC50 worked out at 290 nM. Still for that read-out and setting: the result for `O=C(C1CC1)N1CCCC(c2ccccc2)(C2CCN(Cc3ccc(Br)cc3)CC2)C1` (racemic) reads 180 nM; that for `O=C1CCC(c2ccccc2)(C2CCN(Cc3ccccc3)CC2)C(=O)N1` (racemic) [BENZETIMIDE], above 10000 nM. Turning to `COc1ccc(C2(C3CCN(Cc4ccc(Br)cc4)CC3)CCC(=O)NC2=O)cc1` (racemic), the IC50 in assay [1] turned out to be 3630 nM. For the compound `O=C(Nc1ccccc1)N1CCCC(c2ccccc2)(C2CCN(Cc3ccc(Br)cc3)CC2)C1` (single isomer, unassigned; (+)), the half-maximal inhibitory concentration (IC50) in assay [2] is above 10000 nM; in assay [3], 8900 nM; in assay [4], above 10000 nM; in assay [1], 6310 nM.

With `O=C1CCC(c2ccccc2)(C2CCN(Cc3ccc(F)cc3)CC2)C(=O)N1` (racemic), the IC50 in assay [1] was 4570 nM. In the case of `NS(=O)(=O)N1CCCC(c2ccccc2)(C2CCN(Cc3ccc(Br)cc3)CC2)C1` (racemic), the IC50 in assay [1] worked out at 210 nM. Still for that read-out and setting: in the case of `O=C1CCC(c2ccccc2)(C2CCN(Cc3ccc(Cl)cc3)CC2)C(=O)N1` (racemic) it was 830 nM; in that of `O=C1CCC(c2ccccc2)(C2CCN(Cc3ccc(Cl)c(F)c3)CC2)C(=O)N1` (single isomer, unassigned; (-)), 340 nM. For the compound `CCOC(=O)N1CCCC(c2ccccc2)(C2CCN(Cc3ccc(Br)cc3)CC2)C1` (racemic), the IC50 in assay [1] was found to be 320 nM. For the compound `O=C1CCC(c2ccccc2)(C2CCN(Cc3ccc(Br)cc3)CC2)C(=O)N1` (racemic), the IC50 in assay [1] was determined as 780 nM. As to `O=C1CCC(c2ccccc2)(C2CCN(Cc3ccccc3)CC2)C(=O)N1` (stereo in doubt; (-)-3a) [BENZETIMIDE], the IC50 in assay [2], in assay [3], in assay [4] and in assay [1] (cho) was above 10000 nM throughout.

`O=C(Nc1ccccc1)N1CCCC(c2ccccc2)(C2CCN(Cc3ccc(Br)cc3)CC2)C1` (single isomer, unassigned; (-)): the IC50 in assay [2] is above 10000 nM; in assay [3], above 10000 nM; in assay [4], above 10000 nM; in assay [1], 30 nM. Turning to `NC(=O)N1CCCC(c2ccccc2)(C2CCN(Cc3ccc(Br)cc3)CC2)C1` (racemic), the IC50 in assay [1] amounted to 250 nM. Turning to `CCCN1C(=O)CCC(c2ccccc2)(C2CCN(Cc3ccc(Br)cc3)CC2)C1=O` (racemic), the IC50 in assay [1] worked out at 5010 nM. For `O=C(N1CCCC(c2ccccc2)(C2CCN(Cc3ccc(Br)cc3)CC2)C1)C(F)(F)F` (racemic), in assay [1], the concentration for half-maximal inhibition (IC50) amounted to 690 nM. As to `CC(=O)N1CCCC(c2ccccc2)(C2CCN(Cc3ccc(Br)cc3)CC2)C1` (single isomer, unassigned; (+)), the IC50 in assay [2] was above 10000 nM; in assay [3], above 10000 nM; in assay [4], above 10000 nM; in assay [1], 2310 nM. `COc1cccc(C2(C3CCN(Cc4ccc(Br)cc4)CC3)CCC(=O)NC2=O)c1` (racemic): the IC50 in assay [1] was 1550 nM.

With `NC(=O)CN1CCCC(c2ccccc2)(C2CCN(Cc3ccc(Br)cc3)CC2)C1` (racemic), the IC50 in assay [1] came to 80 nM.

Regarding `Cc1ccc(CN2CCC(C3(c4ccccc4)CCC(=O)NC3=O)CC2)cc1` (racemic) [MELETIMIDE], in assay [1], the IC50 was found to be 2400 nM.
